ChEMBL document CHEMBL4257461, “Schizophrenia: synthetic strategies and recent advances in drug design” (Medchemcomm, 2018)
One block for each compound: values may come before it.

Experiments:
[1] = Drug absorption in po dosed human; assay type: ADME, organism-based; settings: in vivo, read-out: Drug absorption
[2] = Oral bioavailability in human; assay type: ADME, organism-based; settings: in vivo
[3] = Half life in po dosed human plasma; assay type: ADME, organism-based
[4] = Half life in iv dosed human plasma; assay type: ADME, organism-based
[5] = Half life in im dosed human plasma; assay type: ADME, organism-based
[6] = Tmax in human at 9.75 mg, im administered as single dose; assay type: ADME, organism-based; settings: in vivo
[7] = Terminal half life in po dosed human; settings: in vivo
[8] = Drug excretion in po dosed human; settings: in vivo

SMILES: CN1CCN(C2=Nc3cc(Cl)ccc3Nc3ccccc32)CC1 [CLOZAPINE]
Fa [1]: 90 to 95%
bioavailability [2]: 50 to 60%

SMILES: O=C(CCCN1CCC(O)(c2ccc(Cl)cc2)CC1)c1ccc(F)cc1 [HALOPERIDOL]
half-life [3]: 24 h
half-life [4]: 14 h
half-life [5]: 21 h

SMILES: O=C1[C@@H]2[C@H]3CC[C@H](C3)[C@@H]2C(=O)N1C[C@@H]1CCCC[C@H]1CN1CCN(c2nsc3ccccc23)CC1 [LURASIDONE]
Fa [1]: 9 to 19%

Next, values leading:

Tmax [6]: 3 h
SMILES: O=C1CCc2ccc(OCCCCN3CCN(c4cccc(Cl)c4Cl)CC3)cc2N1 [ARIPIPRAZOLE]

half-life [7]: 6 h
dose excreted [8]: < 1%
SMILES: OCCOCCN1CCN(C2=Nc3ccccc3Sc3ccccc32)CC1 [QUETIAPINE]
